System: aP2 mRNA production
Test: aP2 assay for agonist (induction of aP2 mRNA production, bDNA assay)
Format: cell-based
Conditions: preadipocytes

SMILES: CCCCCCN1C(=O)C(CCOc2ccccc2CC(=O)O)Oc2ccccc21 (stereo not shown) [Compound 1, Benzeneacetic acid, 2-[2-(4-hexyl-3,4-dihydro-3-oxo-2H-1,4-benzoxazin-2-yl)ethoxy]-]
- Agonist Intrinsic Activity: 40.4 fold increase over vehicle
